Counter-ions that a name gives are not always drawn.
Experiments:
β3-adrenergic receptor = molecular target: T1, β3-adrenergic receptor (Rattus norvegicus, UniProt P26255); assay: Stimulation of adipocyte lipolysis (β3-effect), glycerol generated; type: cell-based; details: rat epididymal adipocytes, 30 min at 37° C.; concentration giving 50% of the compound's own maximum rate of lipolysis; read-out: Lipolysis (beta3)(EC50 nM)
T1 construct: Rat epididymal fat pads are excised and placed in 0.9% saline; from tissue; host or cells: adipocytes isolated by collagenase from rat epididymal fat pads
Description: (§1) β-Adrenergic receptors can be divided into β1, β2 and β 3-subtypes. Activation of β1 -receptors invokes increases in heart rate while activation of β2 -receptors stimulates glycogen breakdown in muscle and thereby prevents glycogen synthesis. Activation of β3 -receptors stimulates lipolysis (the breakdown of adipose tissue triglycerides to glycerol and free fatty acids), and thereby promotes the loss of fat mass. Ccmpounds that stimulate β3 -receptors will have antiobesity activity. In addition, they have hypoglycemic or anti-diabetic activity, but the mechanism of this effect is unknown. A compound that selectively stimulates β3 -receptors, i.e. has little or no β1 or β2 -activity, will have the desired anti-diabetic and/or anti-obesity activity, but without the undesired effects of increased heart rate (β1 -effect) or muscle tremor (β2 -effect).
(§2) Selectivity of a compound is determined using the following procedures.
The β3 -effect of the compounds is determined by their ability to stimulate adipocyte lipolysis. Rat epididymal fat pads are excised and placed in 0.9% saline. Four grams of tissue is transferred to a flask with 20 ml of aerated Krebs-Henseleit bicarbonate (KHB) buffer containing 3% fatty acid-free bovine serum albumin to which 75 mg of crude bacterial collagenase (Worthington) has been added. The tissue is incubated for about 45 minutes at 37° C. with gentle shaking. The cells are then washed three times with two volumes of KHB buffer, filtered through two layers of gauze, and brought to a final volume of 80 ml with KHB buffer. One ml aliquots of the cell suspension is added to plastic test tubes containing the appropriate additions of vehicle or compound. The cells are gassed for 1 minute with 95%O2 -5%CO2, capped, and incubated at 37° C. with continuous shaking for a total of 30 minutes. The reaction is stopped by adding 0.1 ml of 30% perchloric acid and 0.1 ml of chloroform. After centrifugation, 0.5 ml of supernatant is transferred to another test tube and neutralized with 0.04 ml of 3M K2 CO3 -0.5M triethanolamine. The amount of glycerol generated from the hydrolysis of endogenous triglycerides is determined in a coupled-enzyme spectrophotometric assay. One-tenth milliliter of the neutralized extract is added to a test tube that contains 0.91 ml of assay mixture comprised of the following: 0.84M glycine, 0.42M hydrazine sulfate, 4.2 mM EDTA, 0.9 mM β-NAD, 9.9 mM MgCl2, 1 mM ATP, 17 U of glycerophosphate dehydrogenase, and 4.3 U of glycerokinase. The test tubes are incubated for 40 minutes at 37° C. with constant shaking. The amount of NADH generated, which is proportional to the amount of glycerol, is determined by the increase in absorbance at 340 nm. […]

β1-adrenergic receptor = molecular target: T2, β1-adrenergic receptor (Rattus norvegicus, UniProt P18090); assay: Heart membrane binding (β1-effect), [125I]iodocyanopindolol; details: rat heart membranes, 1 hour
T2 construct: membranes from rat heart; from tissue; host or cells: rat heart membranes
Description: as §1, §2
Binding assays for β1 -effect are carried out by the use of membranes from rat heart, and β2 -effect by the use of membranes from rat lung by the method described in Neve, et al., J. Pharmacol. Exp. Ther., 1985, 235, 657-664 with the following exceptions:
1. the incubation volume is 0.5 ml,
2. the incubation time is 1 hour,
3. the radioligand is [^125 I]iodocyanopindolol,
4. (-)-isoproterenol (50 μM) is used to define specific binding, and
5. the filters are washed at 4° C.

T1 sequence (P26255 whole entry): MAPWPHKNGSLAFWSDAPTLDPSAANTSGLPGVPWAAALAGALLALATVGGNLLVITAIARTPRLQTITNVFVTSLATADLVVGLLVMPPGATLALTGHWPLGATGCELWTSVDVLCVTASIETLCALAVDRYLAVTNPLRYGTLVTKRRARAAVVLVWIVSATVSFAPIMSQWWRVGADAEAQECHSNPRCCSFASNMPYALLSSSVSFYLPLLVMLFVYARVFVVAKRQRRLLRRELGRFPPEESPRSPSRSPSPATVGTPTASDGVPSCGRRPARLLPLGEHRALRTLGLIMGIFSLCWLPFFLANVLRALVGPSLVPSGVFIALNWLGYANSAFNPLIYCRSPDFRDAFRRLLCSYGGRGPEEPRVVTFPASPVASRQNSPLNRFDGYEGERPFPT
T2 sequence (P18090 whole entry): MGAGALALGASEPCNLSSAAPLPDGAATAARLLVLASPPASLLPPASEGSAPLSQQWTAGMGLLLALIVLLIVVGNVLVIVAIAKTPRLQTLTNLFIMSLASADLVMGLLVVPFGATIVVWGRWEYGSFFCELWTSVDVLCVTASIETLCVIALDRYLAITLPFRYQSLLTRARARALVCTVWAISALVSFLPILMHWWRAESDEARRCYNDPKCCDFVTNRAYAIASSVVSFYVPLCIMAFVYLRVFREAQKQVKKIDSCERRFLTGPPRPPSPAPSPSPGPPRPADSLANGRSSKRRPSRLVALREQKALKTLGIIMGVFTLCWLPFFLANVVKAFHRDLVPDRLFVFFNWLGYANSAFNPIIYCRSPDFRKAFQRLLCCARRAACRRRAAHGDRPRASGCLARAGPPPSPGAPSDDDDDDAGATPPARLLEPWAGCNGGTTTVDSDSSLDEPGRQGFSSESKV

| EC50 (β3-adrenergic receptor) [nM] | IC50 (β1-adrenergic receptor) [nM] | Structure (SMILES) |
| --- | --- | --- |
| 2590 | > 1000 | O=C(O)C1(C(=O)O)Oc2ccc3c(c2O1)C[C@@H](NC[C@H](O)c1cccc(Cl)c1)C3 [Example 3, [R-(R*,R* or R*,S*)]7-[[2-(3-Chlorophenyl)-2-hydroxyethyl]amino]-7,8-dihydro-6H-indeno[4,5-d]-1,3-dioxole-2,2-dicarboxylic acid disodium salt] |
| 14.6 | > 1000 | O=C(O)C1(C(=O)O)Oc2ccc3c(c2O1)C[C@H](NC[C@H](O)c1cccc(Cl)c1)C3 [Example 4, [R-(R*,R* or R*,S*)]-7-[[2-(3-Chlorophenyl)-2-hydroxyethyl]amino]-7,8-dihydro-6H-indeno[4,5-d]-1,3-dioxole-2,2-dicarboxylic acid disodium salt] |
| 100 | > 1000 | O=C(O)C1(C(=O)O)Oc2cc3c(cc2O1)CC(NC[C@H](O)c1cccc(Cl)c1)C3 [Example 5, (R)-7-[[2-(3-Chlorophenyl)-2-hydroxyethyl]amino]7,8-dihydro-6H-indeno[5,6-d]-1,3-dioxole-2,2-dicarboxylic acid disodium salt] |
| 4000 | > 1000 | O=C(O)C1(C(=O)O)Oc2cc3c(cc2O1)CC(NCC(O)c1cccc(Cl)c1)CC3 (stereo not drawn) [Example 7, (R*,R*), and (R*,S*)-6-[[2-(3-Chlorophenyl)-2-hydroxyethyl]amino]-5,6,7,8-tetrahydronaphtho[2,3-d]-1,3-dioxole-2,3-dicarboxylic acid disodium salt] |
